Common to all, as to format: cell-based
The subject of assay [1] is Interferon-α. As to the kind of experiment: Induction of Interferon-α using cryopreserved human PBMCs. Particulars: PBMC, 24 h incubation, normalized to 1 uM resiquimod, read-out: mean pEC50 for induction of Interferon-α (converted). Here is the method:
Assay for the Induction of Interferon-α Using Cryopreserved Human Peripheral Blood Mononuclear Cells (PBMCs)
Compounds were dissolved in DMSO. Serial 2-fold dilutions with DMSO were prepared and 0.25 μl dispensed into 384-well clear Greiner polypropylene plates.
Blood samples of up to 200 ml were obtained from healthy human donors. Whole blood in 25 ml volumes was overlaid onto 15 ml Ficoll® gradients in Leucosep® tubes, and centrifuged at 1000 g for 20 min. Cells in the band at the plasma/Histopaque® interface were carefully removed and washed twice with PBS (centrifuged at 400 g for 5 min to harvest). The final pellet was resuspended in freezing medium (90% Heat-inactivated serum, 10% DMSO) to a cell concentration of 4×10^7 cells/ml. The resuspended cells were then cryopreserved (frozen) using a rate controlled freezer, and stored at −140° C. for up to 4 months.
Immediately prior to assay, vials of cryopreserved (frozen) PBMCs were thawed rapidly in a water bath at 37° C. A 1:10 dilution of the cells in trypan blue was prepared and counted. The PBMCs were then diluted in growth media [RPMI 1640 containing 10% fetal calf serum (invitrogen), Penicillin+[…] (Gibco cat. #25030-024, 1:50), L-Glutamine 2 mM, and 1000 units/ml recombinant human IFN-gamma (Preprotech catalogue #300-02)] to a density of 1×10^6 cells/ml, and 50 ul/well dispensed to 384-well clear Greiner polypropylene plates containing 0.25 μl DMSO or test compound in 0.25 μl DMSO. […] Plates were incubated for 24 h at 37° C. in 5% CO2.
A multi-isoform immunoassay was used to quantify IFN-α in PBMC supernatants. Rabbit polyclonal antibody against human IFN-α (catalogue number 31101, Stratech Scientific) was diluted 1:10000 in assay buffer (RPMI 1640 containing 10% fetal calf serum, Invitrogen) and 20 μl was added to each well of an MSD® (Meso-Scale® Discovery) single small-spot 384-well GAR (goat anti-rabbit antibody coated) plate.
The plate was incubated for 1 h at room temperature with vigorous shaking. Following three washes with PBS, 20 μl of cell supernatant were added to each well of the plate. The plate was then incubated for 1 h at room temperature with vigorous shaking. A pair of monoclonal antibodies to IFN-α (catalogue numbers 21100 and 21112, Stratech Scientific) were labelled with sulfo-TAG (MSD®), diluted 1:1000 in assay buffer and 20 μl added to each well of the plate. The plate was further incubated for 1 h at room temperature with vigorous shaking. Following three washes with PBS, 30 μl of ×2 T buffer (MSD®) was added to each well and the plate was read on an MSD® Sector 6000 plate reader.
Data were normalized to internal plate controls of 1 uM resiquimod (n=16) and DMSO (n=16). pEC50 values were derived by 4-parameter curve fit with IRLS in ActivityBase, from 11-point, two-fold serial dilution of test compounds.

The subject of assay [2] is IFN-α. Description: Induction of Interferon-α using fresh human PBMCs. Particulars: PBMC, 24 hr incubation, relative to 2 μM resiquimod control, read-out: mean pEC50 for induction of IFN-α (converted). As to the method:
(§1) Assay for the Induction of Interferon-α and TNF-α Using Fresh Human Peripheral Blood Mononuclear Cells (PBMCs)
(§2) Compounds were dissolved and serially diluted in DMSO to give 100× the required concentration range using a Biomek® 2000. 1 ul of test compound was transferred into 96-well tissue culture plates using a Biomek® FX. Each compound was assayed in duplicate for each donor. Each plate contained a dilution series of the TLR7/8 agonist resiquimod as standard and Column 11 contained 1 μl of 200 μM resiquimod (giving a 2 μM final concentration, used to define the approximate maximal response to resiquimod).
(§3) Blood samples from two human donors were collected into sodium heparin (10 U/ml). 25 ml volumes of whole blood were overlaid onto 15 mls Histopaque® in LEUCOSEP™ tubes which were centrifuged at 800 g for 20 min and the band at the plasma/histopaque interface carefully removed. The collected cells were centrifuged at 2500 rpm for 10 min and the pellet resuspended in 10 ml of media (RPMI 1640 (Low endotoxin) supplemented with 10% v/v foetal calf serum (FCS, low endotoxin) 100 U/ml penicillin G, 100 μg/ml streptomycin, 10 mM L-glutamine and 1× non-essential amino acids). A 1:20 dilution of the cells was prepared using trypan blue & the cells counted using a haemocytometer. The PBMCs were diluted to give a final concentration of 2×10^6/ml and 100 ul of this cells suspension was added to wells containing 1 μl of diluted test compound.
(§4) The cell preparations were incubated for 24 hr (37° C., 95% air, 5% CO2) after which a sample of the supernatant was removed using the Biomek® FX and assayed for both IFN-α and TNF-α using the MSD® (Mesoscale Discovery) electrochemiluminescence assay platform. The IFN-α assay was carried out similarly to that described above. The TNF-α assay was carried out as per kit instructions (Cat No K111BHB).
(§5) Cytokine released was expressed as a percentage of the 2 μM resiquimod control (column 11). This percentage was plotted against compound concentration and the pEC50 for the response determined by non-linear least squares curve fitting. For the IFN-α responses generally a 4 parameter logistic model was selected. For the TNF responses where a clear maximum response was obtained (i.e. a well defined plateau in the response was observed) then a 4 parameter model was generally used. If the upper asymptote of the curve wasn't well defined then the curve fitting was generally constrained to a maximal response of 100% (i.e. to the response to 2 μM resiquimod) or to the response of the highest concentration tested if this was greater than the resiquimod response. Some curves were bell shaped for one or both cytokines and the cytokine data on the down slope of the bell shaped response (i.e. concentrations above those giving the maximal response) were generally excluded from the fit, usually with the exception of the concentration immediately above the peak response. Curve fitting thus concentrated on the up slope of the dose response curve.

For assay [3], the system named is TNF-α. Description: Induction of TNF-α using fresh human PBMCs. Particulars: PBMC, 24 hr incubation, relative to 2 μM resiquimod control, read-out: mean pEC50 for induction of TNF-α (converted). As to the method: as §1, §2, §3, §4, §5

The results in this text go back to patent US10117873B2, “6-amino-purin-8-one compounds” (GlaxoSmithKline LLC, priority 2008, dated 2018).

Structures are written as SMILES.

In the case of `CCCCOc1nc(N)c2[nH]c(=O)n(CCCN3CCC3)c2n1` [Example 1, 6-Amino-9-[3-(1-azetidinyl)propyl]-2-(butyloxy)-7,9-dihydro-8H-purin-8-one], in assay [1], the EC50 is less than 3.16 µM. As for `CCCCOc1nc(N)c2[nH]c(=O)n(CCCN3CCCC3)c2n1` [Example 2, 6-Amino-2-(butyloxy)-9-[3-(1-pyrrolidinyl)propyl]-7,9-dihydro-8H-purin-8-one], in assay [1], the EC50 is less than 3.16 µM. As to `CCCCOc1nc(N)c2[nH]c(=O)n(CCCN3CCCCCC3)c2n1` [Example 3, 6-Amino-2-(butyloxy)-9-[3-(hexahydro-1H-azepin-1-yl)propyl]-7,9-dihydro-8H-purin-8-one], the EC50 in assay [1] was less than 3.16 µM.

Consider `CCCCOc1nc(N)c2[nH]c(=O)n(CCCCN3CCC3)c2n1` [Example 4, 6-Amino-9-[4-(1-azetidinyl)butyl]-2-(butyloxy)-7,9-dihydro-8H-purin-8-one], for which, in assay [1], the EC50 is less than 3.16 µM.

With `CCCCOc1nc(N)c2[nH]c(=O)n(CCCCN3CCCC3)c2n1` [Example 5, 6-Amino-2-(butyloxy)-9-[4-(1-pyrrolidinyl)butyl]-7,9-dihydro-8H-purin-8-one], the figures for the EC50 in assay [1], in assay [2] and in assay [3] were less than 3.16 µM, less than 0.0316 µM and more than 3.16 µM, respectively. As for `CCCCOc1nc(N)c2[nH]c(=O)n(CCCCN3CCCCC3)c2n1` [Example 6, 6-Amino-2-(butyloxy)-9-[4-(1-piperidinyl)butyl]-7,9-dihydro-8H-purin-8-one], the EC50 in assay [1] is less than 3.16 µM; in assay [2], not above 0.01 µM; in assay [3] it was more than 1 µM.

As for `CCCCOc1nc(N)c2[nH]c(=O)n(CCCCN3CCCCCC3)c2n1` [Example 7, 6-Amino-2-(butyloxy)-9-[4-(hexahydro-1H-azepin-1-yl)butyl]-7,9-dihydro-8H-purin-8-one], the EC50 in assay [1] is less than 3.16 µM; in assay [2], not above 0.01 µM; in assay [3], more than 1 µM.

`CCCCOc1nc(N)c2[nH]c(=O)n(CCCCCN3CCC3)c2n1` [Example 8, 6-Amino-9-[5-(1-azetidinyl)pentyl]-2-(butyloxy)-7,9-dihydro-8H-purin-8-one]: the EC50 in assay [1] is less than 3.16 µM.

With `CCCCOc1nc(N)c2[nH]c(=O)n(CCCCCN3CCCC3)c2n1` [Example 9, 6-Amino-2-(butyloxy)-9-[5-(1-pyrrolidinyl)pentyl]-7,9-dihydro-8H-purin-8-one], the EC50 in assay [1] was less than 3.16 µM; in assay [2], less than 0.0316 µM; in assay [3] it was more than 3.16 µM.

Regarding `CCCCNc1nc(N)c2[nH]c(=O)n(CCCN3CCCCC3)c2n1` [Example 16, 6-Amino-2-(butylamino)-9-[3-(1-piperidinyl)propyl]-7,9-dihydro-8H-purin-8-one], the EC50 in assay [1] is less than 3.16 µM. Regarding `CCCCNc1nc(N)c2[nH]c(=O)n(CCCCN3CCCCC3)c2n1` [Example 17, 6-Amino-2-(butylamino)-9-[4-(1-piperidinyl)butyl]-7,9-dihydro-8H-purin-8-one], in assay [1], the EC50 was less than 3.16 µM.

For the molecule `CCCCNc1nc(N)c2[nH]c(=O)n(CCCCCN3CCCCCC3)c2n1` [Example 19, 6-Amino-2-(butylamino)-9-[5-(hexahydro-1H-azepin-1-yl)pentyl]-7,9-dihydro-8H-purin-8-one], the EC50 in assay [1] was less than 3.16 µM. Turning to `CC[C@H](C)Oc1nc(N)c2[nH]c(=O)n(CCCCN3CCCCC3)c2n1` [Example 24, 6-Amino-2-{[(1S)-1-methylpropyl]oxy}-9-[4-(1-piperidinyl)butyl]-7,9-dihydro-8H-purin-8-one], the EC50 in assay [1] was less than 3.16 µM. In the case of `CCCC[C@H](C)Oc1nc(N)c2[nH]c(=O)n(CCCCN3CCCCC3)c2n1` [Example 25, 6-Amino-2-{[(1S)-1-methylpentyl]oxy}-9-[4-(1-piperidinyl)butyl]-7,9-dihydro-8H-purin-8-one], the EC50 in assay [1] is less than 3.16 µM.

As for `CC(C)Oc1nc(N)c2[nH]c(=O)n(CCCCCN3CCCCC3)c2n1` [Example 26, 6-Amino-2-[(1-methylethyl)oxy]-9-[5-(1-piperidinyl)pentyl]-7,9-dihydro-8H-purin-8-one], in assay [1], the EC50 was less than 3.16 µM. Regarding `Nc1nc(OC2CCC2)nc2c1[nH]c(=O)n2CCCCN1CCCCC1` [Example 27, 6-Amino-2-(cyclobutyloxy)-9-[4-(1-piperidinyl)butyl]-7,9-dihydro-8H-purin-8-one], the EC50 in assay [1] is less than 3.16 µM. In the case of `Nc1nc(OC2CCCC2)nc2c1[nH]c(=O)n2CCCCN1CCCCC1` [Example 28, 6-Amino-2-(cyclopentyloxy)-9-[4-(1-piperidinyl)butyl]-7,9-dihydro-8H-purin-8-one], the EC50 in assay [1] was less than 3.16 µM. For `Nc1nc(OC2CCCCC2)nc2c1[nH]c(=O)n2CCCCN1CCCCC1` [Example 29, 6-Amino-2-(cyclohexyloxy)-9-[4-(1-piperidinyl)butyl]-7,9-dihydro-8H-purin-8-one], the EC50 in assay [1] is less than 3.16 µM. Turning to `CCC[C@@H](C)Nc1nc(N)c2[nH]c(=O)n(CCCCN3CCCCC3)c2n1` [Example 30, 6-Amino-2-{[(1R)-1-methylbutyl]amino}-9-[4-(1-piperidinyl)butyl]-7,9-dihydro-8H-purin-8-one], the EC50 in assay [1] was less than 3.16 µM. Still for that read-out and setting: for `CCC[C@H](C)Nc1nc(N)c2[nH]c(=O)n(CCCCN3CCCCC3)c2n1` [Example 31, 6-Amino-2-{[(1S)-1-methylbutyl]amino}-9-[4-(1-piperidinyl)butyl]-7,9-dihydro-8H-purin-8-one] the value was less than 3.16 µM.

Consider `CCC[C@H](C)Oc1nc(N)c2[nH]c(=O)n(CCCN3CCCCC3)c2n1` [Example 32, 6-Amino-2-{[(1S)-1-methylbutyl]oxy}-9-[3-(1-piperidinyl)propyl]-7,9-dihydro-8H-purin-8-one], for which, in assay [1], the EC50 is less than 3.16 µM. Consider `CC[C@H](C)Oc1nc(N)c2[nH]c(=O)n(CCCCCN3CCCCC3)c2n1` [Example 33, 6-Amino-2-{[(1S)-1-methylpropyl]oxy}-9-[5-(1-piperidinyl)pentyl]-7,9-dihydro-8H-purin-8-one], for which the EC50 in assay [1] is less than 3.16 µM. Take `CCCCOc1nc(N)c2[nH]c(=O)n(CCCN3CCCCC3)c2n1` [Example 34, 6-Amino-2-(butyloxy)-9-[3-(1-piperidinyl)propyl]-7,9-dihydro-8H-purin-8-one]: the EC50 in assay [1] is less than 3.16 µM.
